For series [1], the system named is Rats. Particulars: rat, in vivo.
Series [2] deals with Mice. Particulars: mouse, in vivo.
In a further series the test system is Rabbits. The conditions noted are these: rabbit, in vivo.
The test system of the next series is guinea pigs. The conditions noted are these: guinea pig, in vivo.
Series [3] concerns Mice. Particulars: mouse, in vivo. This is another data set of the same source.
Description: (§1) Sera from all bleedings were analysed by passive cutaneous anaphylaxis reaction. Arthus reaction in rabbits and active anaphylaxis reaction in guinea pigs were performed too.
Another series concerns humans. The conditions noted are these: in vivo, iv.
Series [4] deals with antibodies in human sera.
In series [5] the test system is Rats. The conditions noted are these: rat, in vivo; cited from earlier work.
Series [6] concerns Mice. Particulars: mouse, in vivo; cited from earlier work.
The next series concerns patients. The conditions noted are these: human, in vivo; cited from earlier work.
The test system of series [7] is antibodies in human sera. Particulars: cited from earlier work.

Description for Rabbits: as §1
Description for guinea pigs: as §1

With Dextran, the anaphylactoid purpura entry was “anaphylactoid purpura appeared in the paws, ears and tail” in the series with Rats [1]; “anaphylactoid purpura appeared in the paws, ears and tail” in the series with Mice [2]. Moreover, the anaphylactoid inflammation result in the series with Rats [1] (iv) was “acute, serous anaphylactoid inflammation in the ears, snout and tail”; with Mice [2] (iv), “acute, serous anaphylactoid inflammation in the ears, snout and tail”. Moreover, the “antibodies detectable / immunogenicity” value in the series on Rabbits and in the series with guinea pigs was “not immunogenic” in each case. The circulating antibodies entry in the series with Mice [3] is listed as “circulating antibodies were detected”. Also, the antibody production result in the series with humans is “do not lead to antibody production”. Besides, the “sera positive in passive cutaneous anaphylaxis reaction” value with antibodies in human sera [4] is listed as “Three sera gave positive a reaction”. The anaphylactoid reaction entry was “edema and erythema of paws, ears and snout” in the series on Rats [5]; “edema and erythema of paws, ears and snout” in the series with Mice [6]. Moreover, the “renal lesion or anaphylactic shock” value in the series with patients is given as 6 - 8%. In addition, in the series with antibodies in human sera [7], the “human sera contain reacting antibodies; anaphylactic reaction after infusion” value is listed as “human sera contain Dextran reacting antibodies of varying types”.

(Values after patent US3937821A, “Plasma substitute including artificial starch and method for the preparation thereof” (Kyorin Seiyaku Kabushiki Kaisha, priority 1971, dated 1976).)
